# Assays:
# human 5-LOX = target: T1, human 5-LOX (Homo sapiens, UniProt P09917); assay: 5-LOX enzyme activity, fluorescence method (5-HPETE, H2DCFDA); type: biochemical; settings: read-out: 5-LO (IC50)
# T1 construct: purchased Cayman 60402; host or cells: insect cells (lysate)
# T1 sequence (P09917 1-674): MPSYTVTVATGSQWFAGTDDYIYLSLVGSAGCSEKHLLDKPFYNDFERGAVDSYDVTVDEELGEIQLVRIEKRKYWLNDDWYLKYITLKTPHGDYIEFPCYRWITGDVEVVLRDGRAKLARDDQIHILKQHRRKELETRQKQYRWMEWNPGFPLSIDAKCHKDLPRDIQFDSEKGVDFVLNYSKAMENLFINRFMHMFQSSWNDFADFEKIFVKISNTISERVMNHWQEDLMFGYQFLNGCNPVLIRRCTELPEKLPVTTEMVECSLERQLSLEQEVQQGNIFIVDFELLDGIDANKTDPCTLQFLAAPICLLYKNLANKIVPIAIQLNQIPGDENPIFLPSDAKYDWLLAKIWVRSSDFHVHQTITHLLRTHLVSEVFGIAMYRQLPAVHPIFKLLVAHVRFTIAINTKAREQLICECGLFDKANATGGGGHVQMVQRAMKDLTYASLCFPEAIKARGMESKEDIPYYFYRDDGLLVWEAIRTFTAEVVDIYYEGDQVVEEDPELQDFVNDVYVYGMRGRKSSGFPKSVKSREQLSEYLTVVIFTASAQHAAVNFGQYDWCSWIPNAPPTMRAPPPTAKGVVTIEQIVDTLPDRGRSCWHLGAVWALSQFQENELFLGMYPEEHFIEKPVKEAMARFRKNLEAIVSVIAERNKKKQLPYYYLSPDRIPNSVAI
# Outline: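 Compound (0.5 nM to 10 uM) pre-incubated 5 min with enzyme; reaction started with ATP (100 uM final) and arachidonic acid (3 uM final). All steps at room temperature, fluorescence read-out.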
# [1] = system: Rat basophilic leukemia (RBL) cells; assay: LTB4 secretion assay in RBL (rat basophilic leukemia cells); type: cell-based; settings: Rattus norvegicus, RBL
# Outline: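 Cells seeded 2×10^4/well the day before, then pre-incubated 15 min at 37 °C in EMEM/0.5% FBS with compound (5 nM to 100 uM). Stimulation with 2.5 uM arachidonic acid plus 5 uM A23187 (final) for 10 min at 37 °C; LTB4 in supernatant quantified by EIA.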
# Rat whole blood (RWB) = assay: LTB4 secretion assay in RWB (rat whole blood); type: cell-based; settings: Rattus norvegicus
# Outline: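 Heparinized blood from male Sprague Dawley rats (6-9 weeks) diluted 1:1 in RPMI, pre-incubated 15 min at 37 °C with compound (2.5 nM to 50 uM). Stimulated with 10 uM calcium ionophore A23187 for 10 min at 37 °C, stopped with ice-cold PBS; LTB4 in supernatant quantified by EIA.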
IC50 (human 5-LOX),EC50 [1],EC50 (Rat whole blood (RWB)),SMILES
1 to 10 µM,< 10 µM,< 10 µM,CCn1c(NCc2ccc(Oc3ncc(OC(F)(F)F)cn3)cc2)nc2ccc(Nc3cc(C(F)(F)F)n(C)n3)cc21 [Compound 545]
< 1 µM,< 10 µM,< 10 µM,Cc1cc(Nc2ccc3nc(NCc4ccc(Oc5ccc(Cl)cn5)cc4)n(C)c3c2)n[nH]1 [Compound 466]
< 1 µM,< 10 µM,< 10 µM,Cn1c(NCc2c(F)cc(Oc3ncc(Cl)cn3)cc2F)nc2ccc(N)cc21 [Compound 430]
< 1 µM,< 10 µM,< 10 µM,Cn1c(NCc2ccc(Oc3ccc(Cl)cn3)cc2)nc2c(F)cc(NC3COC3)cc21 [Compound 553]
< 1 µM,10 to 20 µM,> 20 µM,Cn1c(NCc2ccc(OCc3ccc(Cl)cn3)cc2)nc2ccc(NC3COC3)cc21 [Compound 315]
< 1 µM,< 10 µM,< 10 µM,Cn1ccc(Nc2ccc3nc(NCc4ccc(Oc5ncc(Cl)cn5)cc4)n(C)c3c2)n1 [Compound 414]
< 1 µM,< 10 µM,< 10 µM,Cc1cc(Nc2ccc3nc(NCc4ccc(Oc5nccc(Cl)n5)cc4)n(C)c3c2)n[nH]1 [Compound 489]
< 1 µM,< 10 µM,10 to 20 µM,Cn1c(NCc2ccc(Oc3ccc(C(F)(F)F)cn3)cc2)nc2c(F)cc(NC3COC3)cc21 [Compound 552]
< 1 µM,< 10 µM,< 10 µM,CCC(Nc1nc2ccc(NC3COC3)cc2n1C)c1ccc(Oc2ncc(C(F)(F)F)cn2)cc1F (stereo not drawn) [Compound 543]
< 1 µM,< 10 µM,10 to 20 µM,Cn1c(NCc2ccc(Oc3ccc(F)cn3)cc2)nc2ccc(NC3COC3)cc21 [Compound 302]
< 1 µM,< 10 µM,< 10 µM,Cn1c(NCc2ccc(Oc3ccc(OC(F)(F)F)cn3)cc2)nc2ccc(NC3COC3)cc21 [Compound 378]
> 10 µM,< 10 µM,< 10 µM,CCC(Nc1nc2ccc(Nc3cc(C(F)(F)F)n(C)n3)cc2n1C)c1ccc(Oc2ncc(C(F)(F)F)cn2)cc1F (stereo not drawn) [Compound 528]
< 1 µM,< 10 µM,< 10 µM,Cn1ccc(Nc2ccc3nc(NCc4ccc(Oc5ncc(Cl)cn5)cc4)n(C)c3c2F)n1 [Compound 487]
< 1 µM,< 10 µM,< 10 µM,Cn1c(NCc2ccc(Oc3ncc(Cl)cn3)cc2)nc2ccc(Nc3cc(C(F)(F)F)[nH]n3)cc21 [Compound 475]
> 10 µM,< 10 µM,< 10 µM,Cc1[nH]nc(Nc2ccc3nc(NCc4ccc(Oc5ccc(Cl)cn5)cc4)n(C)c3c2)c1Cl [Compound 518]
< 1 µM,< 10 µM,< 10 µM,Cn1c(NCc2ccc(Oc3ncc(Cl)cn3)cc2)nc2ccc(NC(C)(C)C(N)=O)cc21 [Compound 358]
< 1 µM,< 10 µM,10 to 20 µM,Cn1c(NCc2ccc(Oc3nc4ccccc4n3C)cc2)nc2ccc(NC3COC3)cc21 [Compound 357]
< 1 µM,< 10 µM,< 10 µM,Cn1c(NCc2ccc(Oc3ncc(Cl)cn3)cc2)nc2ccc(Nc3cc(C(C)(C)C)[nH]n3)cc21 [Compound 469]
< 1 µM,< 10 µM,10 to 20 µM,Cn1c(NCc2ccc(Oc3ccc(Cl)cn3)cn2)nc2ccc(NC3COC3)cc21 [Compound 300]
< 1 µM,< 10 µM,< 10 µM,Cc1cc(Nc2ccc3nc(NCc4ccc(Nc5ncc(Cl)cn5)cc4)n(C)c3c2)n[nH]1 [Compound 486]
< 1 µM,10 to 20 µM,10 to 20 µM,Cn1c(NCc2ccc(Oc3ccncn3)cc2)nc2ccc(NC3COC3)cc21 [Compound 371]

# More lines, now with the values behind:
SMILES,IC50 (human 5-LOX),EC50 [1],EC50 (Rat whole blood (RWB))
Nc1ccc2[nH]c(NCc3ccc(Oc4ccc(Cl)cn4)cc3)nc2c1 [Compound 138],< 1 µM,< 10 µM,< 10 µM
Clc1ccc(Oc2ccc(CNc3nc4cc(Nc5cn[nH]c5)ccc4[nH]3)cc2)cc1 [Compound 24],< 1 µM,< 10 µM,< 10 µM
OCCNc1nc2ccc(NC3COC3)cc2n1Cc1ccc(Oc2ccc(Cl)cc2)cc1 [Compound 204],< 1 µM,< 10 µM,< 10 µM
Cn1c(NCCOc2ccc(OC(F)(F)F)cc2Cl)nc2cc(N)ccc21 [Compound 57],< 1 µM,< 10 µM,> 20 µM
Nc1nc2ccc(NC3COC3)cc2n1Cc1ccc(Oc2ccc(Cl)cn2)cc1 [Compound 234],< 1 µM,< 10 µM,< 10 µM
Cn1c(NCc2ccc(Oc3ncc(Cl)cn3)cc2)nc2ccc(NC3COC3)cc21 [Compound 289],< 1 µM,< 10 µM,< 10 µM
COCCNc1nc2ccc(N3CCC(Oc4ccc(OC(F)(F)F)cc4)C3)cc2[nH]1 (stereo not drawn) [Compound 148],< 1 µM,< 10 µM,> 20 µM
CC(C)(C)Nc1nc2ccc(N)cc2n1CC(=O)Nc1ccc(OC(F)(F)F)cc1 [Compound 67],< 1 µM,< 10 µM,> 20 µM
Fc1ccc(CNc2nc3ccc(N4CCC(Oc5ccc(OC(F)(F)F)cc5)C4)cc3[nH]2)cc1 (stereo not drawn) [Compound 77],< 1 µM,10 to 20 µM,< 10 µM
Nc1ccc2[nH]c(NCCc3ccc(Cl)cc3Cl)nc2c1 [Compound 73],< 1 µM,< 10 µM,10 to 20 µM
Nc1ccc2[nH]c(N3CCC(Oc4ccc(Cl)cn4)C3)nc2c1 (stereo not drawn) [Compound 160],< 1 µM,< 10 µM,> 20 µM
CCC(Nc1nc2ccc(NC3COC3)cc2n1C)c1ccc(Oc2ccc(Cl)cn2)cc1 (stereo not drawn) [Compound 275],< 1 µM,< 10 µM,< 10 µM
Cn1c(NCc2ccc(Oc3ccc(Cl)cc3)cc2)nc2ccc(NC3COC3)cc21 [Compound 184],< 1 µM,< 10 µM,< 10 µM
Nc1ccc2nc(NCc3ccc(OCCC(F)(F)F)cc3)[nH]c2c1 [Compound 176],< 1 µM,< 10 µM,< 10 µM
CC(C)n1c(NCc2ccc(Oc3ccc(Cl)cn3)cc2)nc2ccc(NC3COC3)cc21 [Compound 271],< 1 µM,< 10 µM,< 10 µM
Nc1ccc2[nH]c(NCc3ccc(-c4ccc(Cl)cn4)cc3)nc2c1 [Compound 164],< 1 µM,< 10 µM,> 20 µM
CNc1nc2ccc(N3CCC(Oc4ccc(OC(F)(F)F)cc4)C3)cc2[nH]1 (stereo not drawn) [Compound 104],< 1 µM,< 10 µM,> 20 µM
CC(C)(C)Nc1nc2cc(N)ccc2n1CCOc1ccc(OC(F)(F)F)cc1 [Compound 66],< 1 µM,< 10 µM,> 20 µM
Nc1ccc2nc(N)n(Cc3ccc(COc4ccc(Cl)cn4)cc3)c2c1 [Compound 249],< 1 µM,< 10 µM,< 10 µM
CC(Nc1ccc2nc(N(C)C)[nH]c2c1)c1ccc(Oc2ccc(Cl)cn2)cc1 (stereo not drawn) [Compound 152],< 1 µM,< 10 µM,10 to 20 µM
Nc1ccc2nc(NCc3ccc(C(=O)c4ccccc4)cc3)[nH]c2c1 [Compound 106],< 1 µM,< 10 µM,< 10 µM
N#CC1(Nc2ccc3[nH]c(NCc4ccc(Oc5ccc(Cl)cc5)cc4)nc3c2)CCC1 [Compound 137],< 1 µM,< 10 µM,< 10 µM
Nc1ccc2[nH]c(NCc3ccc(S(=O)(=O)c4ccc(Cl)cc4)cc3)nc2c1 [Compound 129],< 1 µM,< 10 µM,> 20 µM
Nc1ccc2nc(N3CCC3)n(CCOc3ccc(OC(F)(F)F)cc3)c2c1 [Compound 68],< 1 µM,< 10 µM,> 20 µM
CN(C)c1ccc2nc(NCc3ccc(Oc4ccc(Cl)cn4)cc3)n(C)c2c1 [Compound 253],< 1 µM,< 10 µM,< 10 µM
CC(Nc1nc2ccc(NC3COC3)cc2n1C)c1ccc(Oc2ccc(Cl)cn2)cc1 (stereo not drawn) [Compound 256],< 1 µM,10 to 20 µM,< 10 µM
Nc1ccc2[nH]c(NCc3ccc(OC(F)(F)F)cc3)nc2c1 [Compound 79],< 1 µM,< 10 µM,< 10 µM

# Source: US11447486B2, “2-amino-benzimidazole derivatives and their use as 5-lipoxygenase and/or prostaglandin E synthase inhibitors” (INSTITUT PASTEUR KOREA, priority 2014, dated 2022)
